Structures are written as SMILES. Calls of active or inactive are those of the source.

Test [1] has as its system H9c2. Kind of test: cells. Format: functional, cell-based. Particulars: Rattus norvegicus, H9c2, Myocardium.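 Note: confirmatory concentration-response retest of ultra-high-throughput screening hits for modulation of myocardial damage; cell death induced by hydrogen peroxide oxidative stress; compound pretreatment for 60 min then peroxide exposure for 2 h; potency is for protecting the cells against peroxide damage rather than for killing them.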
For test [2], the target named is Ras and Rab interactor 1/Tyrosine-protein kinase ABL1 (Homo sapiens, UniProt P00519+Q13671). It is filed as functional.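 Note: biochemical TR-FRET dose-response test measuring inhibition of binding between Rin1 and Abl proteins.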
For test [3], the target named is T1, Aminopeptidase N (Plasmodium falciparum FcB1/Columbia, UniProt O96935).
T1 sequence (O96935 whole entry): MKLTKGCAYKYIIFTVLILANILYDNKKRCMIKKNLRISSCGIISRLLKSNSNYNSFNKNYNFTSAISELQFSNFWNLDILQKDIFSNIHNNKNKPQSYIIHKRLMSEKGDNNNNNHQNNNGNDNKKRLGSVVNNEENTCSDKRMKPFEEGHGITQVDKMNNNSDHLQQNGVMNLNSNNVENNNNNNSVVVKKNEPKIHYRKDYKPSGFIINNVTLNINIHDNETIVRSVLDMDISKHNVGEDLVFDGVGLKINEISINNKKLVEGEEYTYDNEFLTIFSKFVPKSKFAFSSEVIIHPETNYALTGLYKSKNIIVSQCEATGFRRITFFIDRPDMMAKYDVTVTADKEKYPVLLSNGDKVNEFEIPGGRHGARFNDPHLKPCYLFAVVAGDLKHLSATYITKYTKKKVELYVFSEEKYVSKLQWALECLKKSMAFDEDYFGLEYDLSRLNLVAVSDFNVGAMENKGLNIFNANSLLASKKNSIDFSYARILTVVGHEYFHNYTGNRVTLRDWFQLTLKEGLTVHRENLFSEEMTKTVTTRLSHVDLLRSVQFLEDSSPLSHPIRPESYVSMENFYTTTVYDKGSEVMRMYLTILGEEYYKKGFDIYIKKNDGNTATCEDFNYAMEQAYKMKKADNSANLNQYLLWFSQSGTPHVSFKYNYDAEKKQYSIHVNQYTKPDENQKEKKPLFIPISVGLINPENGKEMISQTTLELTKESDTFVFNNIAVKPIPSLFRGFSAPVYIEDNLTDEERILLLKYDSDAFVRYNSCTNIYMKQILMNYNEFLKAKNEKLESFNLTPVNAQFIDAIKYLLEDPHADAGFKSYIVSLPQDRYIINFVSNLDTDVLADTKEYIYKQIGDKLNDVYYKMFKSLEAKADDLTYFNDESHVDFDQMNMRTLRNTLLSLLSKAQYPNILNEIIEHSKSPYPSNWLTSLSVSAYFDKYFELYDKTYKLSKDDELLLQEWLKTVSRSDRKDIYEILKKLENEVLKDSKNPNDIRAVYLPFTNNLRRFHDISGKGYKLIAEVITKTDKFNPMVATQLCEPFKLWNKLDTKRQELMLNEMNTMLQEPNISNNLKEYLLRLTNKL
The test is described as follows: P. falciparum M1AAP inhibitors, biochemical, fluorogenic H-Leu-NHMec substrate, 1536-well (AID 1445). Also on record: species or system Plasmodium falciparum 3D7, 3D7.

Test [4] addresses T2, Voltage-gated N-type calcium channel alpha-1B subunit/Amyloid beta A4 precursor protein-binding family A member 1 (Homo sapiens, UniProt Q00975+Q02410). It is filed as protein assay.
For test [5], the target named is T2, Voltage-gated N-type calcium channel alpha-1B subunit/Amyloid beta A4 precursor protein-binding family A member 1. It is filed as protein assay. This is another data set of the same source.
In test [6] the target is T3, Methionyl-tRNA synthetase, putative (Trypanosoma brucei brucei, UniProt Q38C91).
T3 sequence (Q38C91 whole entry): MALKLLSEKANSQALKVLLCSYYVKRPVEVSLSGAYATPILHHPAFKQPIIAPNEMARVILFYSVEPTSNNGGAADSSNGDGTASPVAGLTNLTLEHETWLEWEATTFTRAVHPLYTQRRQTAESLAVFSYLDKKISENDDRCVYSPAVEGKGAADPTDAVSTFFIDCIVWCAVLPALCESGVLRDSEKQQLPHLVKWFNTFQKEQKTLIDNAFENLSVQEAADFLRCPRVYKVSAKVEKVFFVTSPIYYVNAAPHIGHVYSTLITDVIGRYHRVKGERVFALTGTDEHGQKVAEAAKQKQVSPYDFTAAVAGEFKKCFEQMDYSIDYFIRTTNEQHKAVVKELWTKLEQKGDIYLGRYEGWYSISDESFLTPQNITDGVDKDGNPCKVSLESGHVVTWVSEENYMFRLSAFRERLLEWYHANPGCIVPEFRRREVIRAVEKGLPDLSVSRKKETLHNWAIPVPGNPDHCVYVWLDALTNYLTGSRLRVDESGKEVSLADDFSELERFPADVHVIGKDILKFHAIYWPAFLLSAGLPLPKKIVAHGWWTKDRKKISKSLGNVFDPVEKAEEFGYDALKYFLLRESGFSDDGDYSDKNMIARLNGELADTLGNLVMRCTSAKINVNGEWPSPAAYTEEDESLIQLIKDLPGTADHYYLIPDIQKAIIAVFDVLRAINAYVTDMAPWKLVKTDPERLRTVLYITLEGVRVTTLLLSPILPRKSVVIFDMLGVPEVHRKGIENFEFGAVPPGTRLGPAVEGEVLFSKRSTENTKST
It is filed as functional, Trypanosoma brucei brucei strain 927/4 GUTat10.1.

Test [7] can be described thus: Counterscreen for inhibitors of Trypanosoma brucei methionyl tRNA synthetase (MetRS): Luminescence-based cell-based high throughput dose response assay to identify compounds that are cytotoxic to Jurkat human T lymphocyte cells. It is filed as functional. (In general: Counterscreens check selectivity or assay interference.)
Test [8] has as its target T3, Methionyl-tRNA synthetase, putative. It is filed as functional, Trypanosoma brucei brucei strain 927/4 GUTat10.1. The source holds these as a separate data set.
The nature of test [9]: cytotoxicity in HEK-293T cells, dose response, cytotoxicity control for BCR NF-kB inhibitor project, luminescence, B-cell screen hits (AID 489021).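 Note: HEK-293T cells carrying an NF-kB luciferase reporter; cells exposed to compound for about 14 hours before viability readout.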 It is filed as functional, cell-based.
Test [10] addresses Large T antigen (Simian virus 40, UniProt P03070). Format: functional, Betapolyomavirus macacae.
The target of test [11] is T4, Leucine aminopeptidase (Plasmodium falciparum 3D7, UniProt Q8IL11).
T4 sequence (Q8IL11 whole entry): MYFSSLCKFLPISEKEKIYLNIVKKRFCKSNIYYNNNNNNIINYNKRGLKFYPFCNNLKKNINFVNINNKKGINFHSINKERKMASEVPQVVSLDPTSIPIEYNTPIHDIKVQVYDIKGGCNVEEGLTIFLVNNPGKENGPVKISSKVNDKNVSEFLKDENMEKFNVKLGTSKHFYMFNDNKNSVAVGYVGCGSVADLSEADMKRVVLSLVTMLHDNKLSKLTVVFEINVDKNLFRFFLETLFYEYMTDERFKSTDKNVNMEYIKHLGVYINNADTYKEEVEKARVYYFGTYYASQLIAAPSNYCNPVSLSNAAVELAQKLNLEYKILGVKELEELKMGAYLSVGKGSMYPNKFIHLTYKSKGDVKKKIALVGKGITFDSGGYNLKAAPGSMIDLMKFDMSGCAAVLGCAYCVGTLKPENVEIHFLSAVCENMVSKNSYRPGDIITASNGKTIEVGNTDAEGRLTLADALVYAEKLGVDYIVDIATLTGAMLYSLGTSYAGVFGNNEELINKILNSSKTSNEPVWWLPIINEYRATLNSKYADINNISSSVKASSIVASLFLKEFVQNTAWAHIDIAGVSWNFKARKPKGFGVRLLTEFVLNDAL
Kind of test: P. falciparum M17LAP inhibitors, primary screen, biochemical, fluorogenic H-Leu-NHMec substrate, 1536-well (AID 1619). It is filed as functional.

For test [12], the target named is Luciferin 4-monooxygenase (Photinus pyralis, UniProt P08659). The test is described as follows: firefly luciferase enzyme inhibitors, dose response, biochemical, luminescence (AID 1891).
Test [13] in a line: Luminescence Cell-Based Dose Confirmation HTS to Identify Inhibitors of Platelet Dense Granule Release. [Related pubchem assays: 1663 (Primary HTS), 1678 (Summary of Project)]. Format: functional.
The nature of test [14]: cytotoxicity in HEK-293T cells, dose response, cytotoxicity control for TCR NF-kB inhibitor project, luminescence, T-cell screen hits (AID 489026).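 Note: cells exposed to compound about 14 hours before the viability readout.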 Format: functional, cell-based.
Test [15] deals with T5, Fatty acid synthase (Homo sapiens, UniProt P49327). The test is described as follows: FAS thioesterase domain inhibitors, dose response, biochemical, kinetic fluorescence intensity (AID 624326).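 Note: rate of fluorescence rise from hydrolysis of a fluorogenic O-methyl fluorescein ester substrate.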 Format: functional.
The target in test [16] is T5, Fatty acid synthase. Kind of test: FAS thioesterase domain inhibitors, dose response, biochemical, endpoint fluorescence intensity, uHTS hits (AID 624327).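 Note: fluorescence from hydrolysis of an O-methyl fluorescein acyl ester substrate by the enzyme.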 It is filed as functional.

T2 sequence (Q00975 whole entry): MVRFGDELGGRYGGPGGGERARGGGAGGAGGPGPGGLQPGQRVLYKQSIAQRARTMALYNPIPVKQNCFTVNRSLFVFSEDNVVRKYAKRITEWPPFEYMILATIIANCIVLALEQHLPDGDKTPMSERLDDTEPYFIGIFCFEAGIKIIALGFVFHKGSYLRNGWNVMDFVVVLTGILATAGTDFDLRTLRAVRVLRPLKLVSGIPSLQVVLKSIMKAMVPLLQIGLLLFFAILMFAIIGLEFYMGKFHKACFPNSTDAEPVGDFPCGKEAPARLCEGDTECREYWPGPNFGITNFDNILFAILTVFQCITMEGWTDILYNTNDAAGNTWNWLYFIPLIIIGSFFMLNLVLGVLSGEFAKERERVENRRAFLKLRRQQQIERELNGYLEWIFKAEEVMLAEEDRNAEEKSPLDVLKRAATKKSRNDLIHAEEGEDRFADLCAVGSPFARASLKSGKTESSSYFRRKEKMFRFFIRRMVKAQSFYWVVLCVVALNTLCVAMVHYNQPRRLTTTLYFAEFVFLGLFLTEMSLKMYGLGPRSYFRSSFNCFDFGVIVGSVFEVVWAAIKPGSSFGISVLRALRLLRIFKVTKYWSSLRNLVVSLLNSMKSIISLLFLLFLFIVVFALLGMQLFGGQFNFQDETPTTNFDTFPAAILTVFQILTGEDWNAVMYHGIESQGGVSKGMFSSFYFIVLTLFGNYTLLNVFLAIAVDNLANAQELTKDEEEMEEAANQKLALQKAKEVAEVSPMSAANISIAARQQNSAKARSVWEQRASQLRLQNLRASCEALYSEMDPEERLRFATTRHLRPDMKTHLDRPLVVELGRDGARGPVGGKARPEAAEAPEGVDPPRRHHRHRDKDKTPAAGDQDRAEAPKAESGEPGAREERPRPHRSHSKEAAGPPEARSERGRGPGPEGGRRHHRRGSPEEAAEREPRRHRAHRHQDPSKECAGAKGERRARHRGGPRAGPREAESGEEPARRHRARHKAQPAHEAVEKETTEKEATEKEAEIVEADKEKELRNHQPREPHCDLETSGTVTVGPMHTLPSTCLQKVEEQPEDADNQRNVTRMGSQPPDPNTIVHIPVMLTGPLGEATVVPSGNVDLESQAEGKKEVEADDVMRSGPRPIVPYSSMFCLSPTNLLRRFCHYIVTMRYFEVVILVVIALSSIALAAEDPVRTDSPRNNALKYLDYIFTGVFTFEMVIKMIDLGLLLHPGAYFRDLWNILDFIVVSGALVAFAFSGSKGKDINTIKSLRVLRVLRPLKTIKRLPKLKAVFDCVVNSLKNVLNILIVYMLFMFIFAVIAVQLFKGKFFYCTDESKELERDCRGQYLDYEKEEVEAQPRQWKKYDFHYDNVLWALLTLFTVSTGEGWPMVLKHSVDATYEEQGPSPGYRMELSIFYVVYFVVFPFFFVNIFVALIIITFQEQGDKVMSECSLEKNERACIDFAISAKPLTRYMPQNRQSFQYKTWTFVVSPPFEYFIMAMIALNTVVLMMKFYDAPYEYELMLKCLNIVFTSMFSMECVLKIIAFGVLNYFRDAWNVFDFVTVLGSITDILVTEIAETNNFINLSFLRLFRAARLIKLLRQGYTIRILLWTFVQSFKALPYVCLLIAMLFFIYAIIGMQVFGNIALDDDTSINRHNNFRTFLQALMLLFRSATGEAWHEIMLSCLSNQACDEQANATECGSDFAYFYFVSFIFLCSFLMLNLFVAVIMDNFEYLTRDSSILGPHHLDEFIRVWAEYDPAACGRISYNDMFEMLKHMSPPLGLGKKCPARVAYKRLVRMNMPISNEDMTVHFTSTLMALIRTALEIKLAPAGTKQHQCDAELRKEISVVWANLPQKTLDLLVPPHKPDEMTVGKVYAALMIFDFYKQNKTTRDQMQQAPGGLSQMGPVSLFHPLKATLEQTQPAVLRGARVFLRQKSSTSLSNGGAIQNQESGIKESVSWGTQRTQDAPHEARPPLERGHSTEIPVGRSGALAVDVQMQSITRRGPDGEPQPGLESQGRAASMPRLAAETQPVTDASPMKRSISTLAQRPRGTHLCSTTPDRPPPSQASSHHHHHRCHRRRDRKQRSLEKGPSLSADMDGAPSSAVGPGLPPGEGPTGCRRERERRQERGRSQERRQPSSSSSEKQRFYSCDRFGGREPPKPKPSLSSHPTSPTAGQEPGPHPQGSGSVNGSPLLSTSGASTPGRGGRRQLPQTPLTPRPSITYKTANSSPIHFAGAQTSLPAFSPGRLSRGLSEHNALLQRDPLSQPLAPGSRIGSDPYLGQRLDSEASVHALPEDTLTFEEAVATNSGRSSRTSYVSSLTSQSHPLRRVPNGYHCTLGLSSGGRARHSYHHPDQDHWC
T2 sequence (Q02410 whole entry): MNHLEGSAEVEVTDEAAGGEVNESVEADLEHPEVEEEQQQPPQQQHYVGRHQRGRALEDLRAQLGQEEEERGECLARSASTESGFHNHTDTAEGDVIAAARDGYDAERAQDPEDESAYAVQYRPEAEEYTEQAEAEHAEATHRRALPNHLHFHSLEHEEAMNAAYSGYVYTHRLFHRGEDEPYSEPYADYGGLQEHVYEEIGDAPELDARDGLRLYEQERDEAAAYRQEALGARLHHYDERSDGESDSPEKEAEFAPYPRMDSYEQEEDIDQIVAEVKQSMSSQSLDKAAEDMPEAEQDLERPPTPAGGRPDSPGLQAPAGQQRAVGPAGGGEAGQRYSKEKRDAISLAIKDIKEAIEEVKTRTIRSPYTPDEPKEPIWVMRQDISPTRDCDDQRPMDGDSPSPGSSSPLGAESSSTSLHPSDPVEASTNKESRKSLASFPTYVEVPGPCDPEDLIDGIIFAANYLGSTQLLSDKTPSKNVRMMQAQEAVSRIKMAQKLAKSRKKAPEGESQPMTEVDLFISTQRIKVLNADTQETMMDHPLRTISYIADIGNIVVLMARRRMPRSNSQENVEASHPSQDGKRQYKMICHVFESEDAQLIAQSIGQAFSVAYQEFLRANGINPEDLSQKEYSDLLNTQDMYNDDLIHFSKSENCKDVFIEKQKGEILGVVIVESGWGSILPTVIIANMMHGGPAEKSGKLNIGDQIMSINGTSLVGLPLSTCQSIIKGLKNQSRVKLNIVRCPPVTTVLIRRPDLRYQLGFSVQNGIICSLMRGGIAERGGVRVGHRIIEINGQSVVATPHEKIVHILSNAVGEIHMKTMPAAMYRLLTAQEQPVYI
Sequence of Ras and Rab interactor 1/Tyrosine-protein kinase ABL1 (P00519 whole entry): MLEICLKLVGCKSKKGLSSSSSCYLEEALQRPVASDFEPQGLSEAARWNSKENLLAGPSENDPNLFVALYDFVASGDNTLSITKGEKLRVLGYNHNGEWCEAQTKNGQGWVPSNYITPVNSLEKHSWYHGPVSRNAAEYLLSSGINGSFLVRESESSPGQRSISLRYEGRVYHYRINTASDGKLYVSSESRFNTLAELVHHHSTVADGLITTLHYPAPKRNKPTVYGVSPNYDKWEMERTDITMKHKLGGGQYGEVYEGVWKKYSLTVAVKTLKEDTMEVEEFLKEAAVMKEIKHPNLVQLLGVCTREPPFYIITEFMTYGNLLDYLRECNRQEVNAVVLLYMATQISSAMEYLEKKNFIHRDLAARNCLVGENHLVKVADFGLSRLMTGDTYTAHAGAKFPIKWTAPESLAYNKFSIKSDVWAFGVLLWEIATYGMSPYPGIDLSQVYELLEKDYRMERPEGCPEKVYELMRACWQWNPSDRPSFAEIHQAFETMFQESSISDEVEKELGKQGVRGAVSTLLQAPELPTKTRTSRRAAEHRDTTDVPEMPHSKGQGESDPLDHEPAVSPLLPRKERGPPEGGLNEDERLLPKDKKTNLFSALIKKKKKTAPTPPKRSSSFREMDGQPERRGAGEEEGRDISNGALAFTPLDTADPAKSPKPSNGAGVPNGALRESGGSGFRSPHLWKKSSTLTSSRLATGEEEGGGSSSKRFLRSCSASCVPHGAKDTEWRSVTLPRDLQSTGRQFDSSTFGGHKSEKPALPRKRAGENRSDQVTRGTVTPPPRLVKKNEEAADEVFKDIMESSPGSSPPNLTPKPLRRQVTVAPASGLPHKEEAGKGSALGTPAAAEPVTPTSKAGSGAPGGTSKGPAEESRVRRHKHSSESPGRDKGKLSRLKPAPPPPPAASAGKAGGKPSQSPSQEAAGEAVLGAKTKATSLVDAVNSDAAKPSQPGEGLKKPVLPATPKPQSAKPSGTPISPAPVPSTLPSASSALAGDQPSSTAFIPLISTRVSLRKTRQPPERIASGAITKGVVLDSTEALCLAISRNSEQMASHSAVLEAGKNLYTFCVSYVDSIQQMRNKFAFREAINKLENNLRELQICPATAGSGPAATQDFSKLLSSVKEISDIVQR
Sequence of Ras and Rab interactor 1/Tyrosine-protein kinase ABL1 (Q13671 whole entry): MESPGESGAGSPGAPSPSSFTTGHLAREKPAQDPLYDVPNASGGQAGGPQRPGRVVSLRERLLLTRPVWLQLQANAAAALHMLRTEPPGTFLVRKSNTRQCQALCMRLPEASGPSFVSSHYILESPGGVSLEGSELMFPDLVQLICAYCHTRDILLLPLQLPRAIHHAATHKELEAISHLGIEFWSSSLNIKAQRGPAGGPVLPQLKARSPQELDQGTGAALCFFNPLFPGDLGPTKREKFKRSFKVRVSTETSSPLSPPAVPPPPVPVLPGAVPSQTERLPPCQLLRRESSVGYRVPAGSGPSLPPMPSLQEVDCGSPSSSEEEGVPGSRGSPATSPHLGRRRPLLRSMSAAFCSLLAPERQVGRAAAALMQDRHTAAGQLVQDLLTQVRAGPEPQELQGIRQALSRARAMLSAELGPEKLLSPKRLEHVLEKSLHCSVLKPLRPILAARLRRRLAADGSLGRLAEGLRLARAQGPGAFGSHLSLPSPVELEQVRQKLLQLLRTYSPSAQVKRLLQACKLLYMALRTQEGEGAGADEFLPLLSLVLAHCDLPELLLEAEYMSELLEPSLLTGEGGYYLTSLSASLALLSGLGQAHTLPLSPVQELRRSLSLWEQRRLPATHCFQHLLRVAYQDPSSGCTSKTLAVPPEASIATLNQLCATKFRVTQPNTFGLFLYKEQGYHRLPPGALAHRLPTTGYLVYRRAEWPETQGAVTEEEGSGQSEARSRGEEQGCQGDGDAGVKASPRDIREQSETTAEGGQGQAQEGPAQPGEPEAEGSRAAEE

For the molecule `COc1cccc(NC(=O)NC2(C(F)(F)F)Oc3ccccc3O2)c1`, the IC50 in test [1] was > 79 µM (inactive).
`CCN(CC)C(=O)CSc1nc(Cc2ccccc2)nc2ccccc12`: the IC50 in test [2] is > 73.4 µM (inactive).
As to `N#CC12CCCCC1CC1CCCCC1(C#N)N2Cc1cccnc1` (stereo unspecified), the IC50 in test [2] was 1.68 µM (active).
`CCOc1cc(C2C3=C(CCCC3=O)OC3=C2C(=O)CCC3)cc([N+](=O)[O-])c1O`: in [3], the IC50 is 46.3 µM (active).
Regarding `O=C(/C=C/c1ccc([N+](=O)[O-])cc1)N(c1ccccn1)C1CCCCC1`, the IC50 is 29.1 µM (active) in [4] and 10.5 µM (active) in test [5].
As for `COc1ccc(OC)c(C2CC(=O)c3c([nH]c(C(=O)OCC4CCCO4)c3C)C2)c1` (stereo unspecified), in test [1], the half-maximal inhibitory concentration (IC50) was 21.1 µM (active).
As for `OC(c1cc(Cl)cc(Cl)c1)c1nc(-c2ccccc2C(F)(F)F)c[nH]1` (stereo unspecified), the IC50 in test [6] is 2.88 µM (active); in test [7] it was 59.4 µM (inactive); in test [8] it was 4.05 µM (active).
As for `CC(=O)Nc1cccc(NC(=O)c2cc(-c3cccnc3)nc3ccc(Br)cc23)c1`, the IC50 in [1] was 37.9 µM (inactive).
As for `OCCNc1ncnc2c1ncn2[C@H]1CN(Cc2ccc(-c3ccccc3)cc2)C[C@@H](CO)O1`, the IC50 in test [2] was 12.6 µM (inactive).
As to `CCCN1C(=O)/C(=C/c2c(N3CCNC(=O)C3CC(=O)OCC)nc3c(C)cccn3c2=O)SC1=S` (stereo unspecified), the IC50 in test [9] is 50 µM (inactive); in [3], 34.1 µM (active).
For `Cn1sc(=O)c2cc(S(=O)(=O)NC3CC3)ccc21`, the IC50 is 9.45 µM (active) in [4], 57.3 µM (active) in test [10] and 15.6 µM (active) in [5].
As to `Cc1ccccc1NC(=O)CN1C(=O)NC2(CCCCC2)C1=O`, the half-inhibitory concentration (IC50) in [11] was 71.9 µM (active).
As for `O=C(O)CCC(=O)Nc1sc2c(c1C(=O)Nc1cccc3ccccc13)CCCCC2`, the IC50 in test [11] was 51 µM (active).
Consider `O=C(O)CCCC(=O)N1N=C(c2c(O)nc3ccc(Cl)cc3c2-c2ccccc2)CC1c1cccs1` (stereo unspecified), for which the IC50 in test [3] is 20.3 µM (active).
In the case of `O=C(CC1SCCNC1=O)Nc1cccc(Cl)c1` (stereo unspecified), the IC50 in test [2] was 20.8 µM (inactive).
Take `O=C(O)c1ccc(N=Nc2c(O)[nH]c3ccccc23)cc1`: in test [11], the IC50 is 84.3 µM (active). Moreover, the EC50 was 0.365 µM (active) in test [12] and 0.937 µM (active) in test [13].
For the molecule `CC(=O)Nc1ccc2c(c1)nc(O)c1ccccc12`, the IC50 in test [1] is 34 µM (inactive).
In the case of `Cc1ncc(CO)c(/C=N/NC(=O)c2ccc(Br)cc2)c1O`, the IC50 in [3] is 14.4 µM (active).
Consider `O=C(O)C1CCCCC1C(=O)Nc1cc(C(F)(F)F)ccc1Cl` (stereo unspecified), for which the half-maximal inhibitory concentration (IC50) in test [11] is 17.5 µM (active).
With `NS(=O)(=O)c1ccc(CCNC(=O)c2cc(-c3cc(Cl)ccc3O)n[nH]2)cc1`, the IC50 is 14.4 µM (inactive) in [6] and 119 µM (inactive) in [8].
As for `NS(=O)(=O)c1ccc(CCNC(=O)c2cc(-c3cc(Cl)ccc3O)[nH]n2)cc1`, the IC50 in test [7] is 43.3 µM (inactive).
Take `CCc1nc2ccc(C(=O)Nc3cccc(OCC(=O)N(C)C)c3)cn2c1N(C)Cc1cc2ccccc2s1`: in [1], the IC50 was > 79 µM (inactive).
As to `CCN(CC)C(=O)C(=O)c1cn(CC(=O)NCc2ccc3c(c2)OCO3)c2ccccc12`, the IC50 in test [6] is 4.83 µM (active); in [7], 83.3 µM (inactive); in [8], 14.4 µM (inactive).
Consider `CC(C)(C)C1CCc2c(C(=O)NNC(=O)CCC(=O)O)csc2C1` (stereo unspecified), for which the IC50 in [11] is 14.5 µM (active).
On to `COc1cc(NS(=O)(=O)c2ccc(OC)c(C)c2C)c(OC)cc1Cl`, for which the IC50 in test [14] is > 80 µM (inactive).
With `CN(C)C(=O)CSc1nc(O)c2ccccc2n1`, in test [1], the IC50 was > 79 µM (inactive).
Turning to `Cc1c(OCc2nn[nH]n2)ccc2c(-c3ccccc3)cc(=O)oc12`, the IC50 in test [15] is 1.61 µM (active); in test [11], 95.1 µM (active); in test [16], 1.59 µM (active).
Turning to `COc1cc(-c2cc(C(=O)NCc3ccco3)c3ccccc3n2)cc(OC)c1OC`, in test [1], the IC50 is 13.2 µM (active).

One may read the IC50 as the concentration needed to halve the response being measured. By EC50 is commonly meant the concentration needed to bring the measured effect to its halfway point.

These data come from ChEMBL document CHEMBL1201862, “PubChem BioAssay data set” (2004).
